# Measurements taken from patent publication US8258099B2, “Pin1-modulating compounds and methods of use thereof” (Max-Planck-Gesellschaft zur Foerderung der Wissenschaften …, priority 2004, dated 2012).
# Square brackets hold non-standard residues; d marks the D form. Peptide text beside a SMILES is read from it. d(pT) = C[C@H](OP(=O)(O)O)[C@@H](N)C(=O)O; 2Nal = N[C@@H](Cc1ccc2ccccc2c1)C(=O)O; Pip = O=C(O)[C@@H]1CCCCN1
# Experiments:
# hPin1 PPIase domain = target: T1, hPin1 PPIase domain (Homo sapiens, UniProt Q13526); experiment: Isothermal titration calorimetry (ITC), isolated PPIase domain; assay type: binding
# T1 construct: The hPin1 PPIase domain comprising of amino acid residues Gly45-Glu163 was amplified by PCR; made in house; host or cells: E. coli BL21(DE3) (pET28a)
# T1 sequence (Q13526 45-163): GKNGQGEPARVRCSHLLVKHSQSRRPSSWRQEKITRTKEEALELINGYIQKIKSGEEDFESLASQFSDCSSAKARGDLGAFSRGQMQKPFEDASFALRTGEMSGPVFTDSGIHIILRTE
# Experimental: Calorimetric experiments were performed using a VP-ITC titration calorimeter (MicroCal, Inc, Northampton, Mass.) at 10° C. All solutions were degassed under vacuum prior to use. Solutions of hPin1 and hPin1 PPIase domain were dialyzed against 10 mM Hepes (pH 7.8). The protein concentration in the sample cell was adjusted to 6.5 μM using the same batch of buffer. Protein concentrations were determined as described above. The volume of the protein solution in the sample cell was 1.4 ml. The injection syringe was filled with 300 μl solution of peptide 17 (see table III) (250 μM in the same batch of buffer as used for dialyses). Each titration experiment consisted of a single 1 μl injection followed by 16 identical injections of 5 μl solution of peptide 17.
# (§1) The stability of peptides 15 and 17 in cytoplasmic extracts from HeLa cells was investigated using MALDI-TOF mass spectrometry and capillary electrophoresis, respectively. In the cytosolic incubation mixture, streptavidin sepharose beads served to isolate peptide 15 fragments after prolonged incubation. […] Therefore, phosphopeptides are useless for evaluating Pin1 functions in vivo unless dephosphorylation can be avoided.
# [1] = Stability against cellular phosphatases and proteases in HeLa cell lysate; assay type: in vitro ADME
# Experimental: FIG. 4 depicts the stability of peptide 17 against cellular phosphatases and proteases. Peptide 17 was incubated for 3 hours in HeLa cell lysate in the absence of phosphatase and protease inhibitors. The mixture was then analyzed by capillary electrophoresis (short dashed line). As controls, the untreated peptide 17 (solid line) and its nonphosphorylated derivative (dotted line) were used. The temperature of the capillary thermostating system was kept at 16° C. Separation buffer was 50 mM sodium phosphate, pH 7.0. Signals were detected at 220 nm.
# Peptide 17 was incubated with HeLa cell lysate for 3 h and analyzed with capillary electrophoresis using UV detection at 220 nm on a P/ACE MDQ (Beckman Coulter, Palo Alto, Calif.) system. Fused-silica capillaries (Polymicro Technologies) of 40 cm length at an operation voltage of 20 kV were used. As references, untreated peptide 17 and its nonphosphorylated derivative were used. The samples were hydrodynamically injected with 3.45 kPa for 10 s. 50 mM sodium phosphate buffer (pH 7.0) was used as separation buffer. The system temperature was kept at 16° C.
# as §1
# [2] = target: T2, interaction of MPM-2 antigens with GST-hPin1 (Homo sapiens, UniProt Q13526); experiment: MPM-2 competition assay; assay type: binding; details: mitotic HeLa cell lysate, 8 μM GST-hPin1
# T2 construct: made in house
# T2 sequence (Q13526 whole entry): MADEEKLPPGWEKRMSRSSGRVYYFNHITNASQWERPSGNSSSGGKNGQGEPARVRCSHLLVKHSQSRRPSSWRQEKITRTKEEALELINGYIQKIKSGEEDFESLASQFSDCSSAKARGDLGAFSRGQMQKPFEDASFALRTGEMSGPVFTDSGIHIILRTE
# Experimental: FIG. 7 depicts the influence of peptide 17 on the interaction of MPM-2 antigens with hPin1. The indicated concentration of peptide 17 or its nonphosphorylated derivative (control) was incubated with an 8 μM solution of GST-hPin1. After addition of mitotic HeLa cell lysate, GST-hPin1 was extracted from the respective mixture using glutathione sepharose. Samples were analyzed regarding extracted GST-hPin1 and coprecipitated MPM-2 antigenes by SDS PAGE and western blot analysis. Untreated lysate of mitotic HeLa cells was loaded on the first line (extract). MPM-2 antigenes were detected using the monoclonal anti MPM-2 antibody (mouse). GST-hPin1 was detected using an anti hPin1 PPIase domain antiserum (rabbit). Horseradish peroxidase-conjugated antibodies from mouse or rabbit were used as secondary antibodies. […]
# 1.3 mM of Peptide 17 or its nonphosphorylated derivative were incubated with GST-hPin1 (8 μM) for 2 hours at 4° C. […] Following SDS-PAGE, the samples were analyzed by western blot analysis. GST-hPin1 and coextracted MPM-2 antigens were detected using an anti hPin1 PPIase domain antiserum (rabbit) or monoclonal anti MPM-2 antibody (Upstate Biotechnology) from mouse. […]
# MPM-2 antigens are mitotic phosphoproteins that are specifically recognized by the monoclonal antibody MPM-2. […] The coextracted MPM-2 antigenes were detected after SDS PAGE by western blot analysis using the anti MPM-2 antibody. […]
smiles,measurement,setting,value
"CC(=O)N[C@@H](Cc1ccccc1)C(=O)N[C@@H](C(=O)N1CCCC[C@H]1C(=O)N[C@@H](Cc1ccc2ccccc2c1)C(=O)N[C@@H](CCC(N)=O)C(N)=O)[C@H](C)OP(=O)(O)O [Peptide 17, Ac-Phe-D-Thr(PO3H2)-Pip-Nal-Gln-NH2] (Ac-F[d(pT)][Pip][2Nal]Q-NH2)","thermodynamic constants, isolated PPIase domain versus full-length hPin1",hPin1 PPIase domain,same thermodynamic constants
same,stability against HeLa cell lysate,"[1]; 3 hours of incubation, no phosphatase and protease inhibitors, capillary electrophoresis",complete stability
same,stability in cytosol,[1]; discussion statement (FIG. 4),sufficiently stable
same,influence on interaction of MPM-2 antigenes with GST-hPin1,[2],did not influence
